From US20230035592A1, “DIRECT AMPK ACTIVATOR COMPOUNDS COMBINED WITH INDIRECT AMPK ACTIVATOR COMPOUNDS, COMPOSITIONS, METHODS AND USES THEREOF” (SOCIETE DES PRODUITS NESTLE S.A., priority 2019, published 2023)

Tests used:
AMPK β1 WT = assay: pACC HTRF assay in AMPKβ1/β2 double knockout U-2 OS cells stably expressing β1 WT; type: cell-based, human
Experimental: (§1) The β1 WT or β1 S108A mutant were stably expressed in AMPKβ1β2 double knockout cells and were treated with varying concentrations of compound 1 for 30 mins at 37 C in the presence or absence of 11 μM of compound 2. Phosphorylation of ACC was assessed using the HTRF Cisbio (pACC kit).
(§2) AMPKβ1/β2 double knockout U-2 OS Flp-In™ T-Rex™ cell lines were generated by Horizon Discovery (Cambridge, UK). Cells were genotyped and analysed by Western blotting to confirm that there was a complete knockout of AMPKβ1/β2. We took these AMPKβ1/β2 double knockout cells, and re-introduced the expression of human β1 wild-type (WT) or a β1 Serine 108 to alanine mutation (S108A). This was achieved using the Flp-In™ system (Invitrogen) present in this cell line and stable cells expressing β1 WT or a β1 S108A mutant were generated according to the manufacturers' protocols. Re-expression of the β1 subunit was confirmed by Western blot analysis.
(§3) Cells stably expressing β1 WT or a β1 S108A mutant were treated with varying concentrations of Compound 1 in the presence or absence of a fixed concentration (11 μM) of compound 2. Cells lysates were subjected to the pACC HTRF (Cisbio) assay to determine the level of phosphorylation of the AMPK substrate, ACC, in cell lysates, as in example 1.

AMPK = assay: pACC HTRF (Cisbio) assay, phosphorylation of ACC in U-2 OS Flp-In T-REx cells; type: cell-based; conditions: for phosphorylation of the AMPK substrate ACC (ratio 665/620 nm): varying concentrations, 30 mins at 37 C
Experimental: U-2 OS cells were treated with varying concentrations of compound 1 for 30 mins at 37 C. Phosphorylation of ACC was assessed using the HTRF Cisbio (pACC kit).
U-2 OS cells were treated with varying concentrations of compound 1 for 30 mins at 37 C in the presence or absence of 11 μM of compound 2. Phosphorylation of ACC was assessed using the HTRF Cisbio (pACC kit).
First, we monitored the activation of AMPK within cells using the indirect activator, compound 1. U-2 OS Flp-In T-REx cells were seeded at 50 K in a 96-well plate and left overnight at 37 C in DMEM GlutaMAX (Thermo Fisher Scientific) supplemented with 10% (vol/vol) FBS and 100 U/ml penicillin G, and 100 μg/ml streptomycin. Cells were treated for 30 mins with varying concentrations of Compound 1 in media lacking FBS and then cells were lysed in 50 μl of Cisbio lysis buffer #1 supplemented with blocking solution as per the manufacturer's protocol (Cisbio). Cells were lysed for 30 mins at room temperature before 16 μl of lysate was incubated with 4 μl of the HTRF antibodies (1:40 dilution of the acceptor and donor (p)ACC antibodies, as per the manufacturers protocol). Lysates were incubated overnight with the antibodies before the 665 nm/620 nm ratio was determined using a MolecularDevices i3 plate reader (with a HTRF cartridge add-on).
To investigate whether treatment of compound 1 with our new identified direct benzocoumarin AMPK activator, compound 2, could improve the activation of AMPK, cells were treated for 30 mins with varying concentrations of compound 1 in the presence or absence of 11 μM compound 2. Cells were cultured and analysed according to example 1.

[1] = tested on: ADaM-binding site AMPK mutant (β1 S108A); assay: pACC HTRF assay in AMPKβ1/β2 double knockout U-2 OS cells stably expressing β1 S108A mutant; type: cell-based, human; conditions: fixed 11 μM compound 2 with varying concentrations of compound 1
Experimental: as §1, §2, §3

[2] = tested on: AMPK complexes containing the β2 isoform subunit; assay: pACC HTRF assay in AMPKβ1/β2 double knockout U-2 OS cells stably expressing β2 WT isoform; type: cell-based, human; conditions: fixed 11 μM compound 2 with varying concentrations of compound 1
Experimental: U-2 OS cells AMPKβ1β2 double knockout cells stably expressing AMPK β2 were treated with varying concentrations of compound 1 for 30 mins at 37 C in the presence or absence of 11 μM of compound 2. Phosphorylation of ACC was assessed using the HTRF Cisbio (pACC kit).
We took AMPKβ1/β2 double knockout cells, and re-introduced the expression of the human β2 WT isoform. […] Cells stably expressing β2 WT were treated with varying concentrations of Compound 1 in the absence or presence of a fixed concentration (11 μM) of compound 2. Cell lysates were subjected to the pACC HTRF (Cisbio) assay to determine the level of phosphorylation of the AMPK substrate, ACC, in cell lysates, as in Example 1. […] Direct activation AMPK by binding to the ADaM site was impaired or abolished in β2-containing complexes in vitro and in cells. The inability of compound 2 to improve the activation of AMPK by compound 1, was consistent with the knowledge we have generated showing the compound 2 binds to the ADaM-site of AMPK. […] Low doses of compound 1 in combination with compound 2 could activate AMPK.

O=c1oc2cc(O)ccc2c2ccccc12 [Compound 1, 3-hydroxy-6H-benzo[c]chromen-6-one]
pACC (fold increase in activation) (AMPK β1 WT; cells stably expressing β1 WT, varying concentrations, 30 mins at 37 C): able to dose-dependently increase pACC | phosphorylation of the AMPK substrate ACC (ratio 665/620 nm) (AMPK): increased the phosphorylation of the AMPK substrate, ACC, in a dose-dependent manner | phosphorylation of the AMPK substrate ACC (ratio 665/620 nm) (AMPK; listed as compound 1): increases the phosphorylation of the AMPK substrate, ACC, in a dose-dependent manner

COc1cc(O)c2c(c1)c(=O)oc1cc(O)ccc12 [Compound 2, 3,10-Dihydroxy-8-methoxy-6H-benzo[c]chromen-6-one]
effect on the dose-response curve of compound 1 (pACC) (AMPK β1 WT; β1 WT cells, fixed 11 μM compound 2 with varying concentrations of compound 1): capable of causing a left-shift and improvement | effect on the dose-response curve of compound 1 (pACC) (AMPK; fixed 11 μM compound 2 with varying concentrations of compound 1, 30 mins): left-shift in the dose-response curve | effect on the dose-response curve of compound 1 (pACC) [1]: not able to cause a left-shift and improvement | effect on the dose-response curve of compound 1 (pACC) [2]: did not improve the dose-response curve
